Measured values from US6455755B2, “Leukotriene B4 receptor transgenic mice” (Brigham and Women's Hospital, priority 1999, dated 2002).

Legend:
[1] = tested on: PMN infiltration into ear skin; experiment: Ear skin inflammation model (topical application, PMN infiltration by MPO); type: in vivo, mouse; conditions: for increase in PMN infiltration into skin compared to vehicle control: LTB4 1 μg topical to ear, MPO; for percent inhibition of LTB4-induced PMN infiltration: 10 μg topical 5 min before LTB4 1 μg
Procedure: Ear skin inflammation model. hBLTR transgenic and wt mice were anesthetized and 16-phenoxyl-LXA4 (15(S)-16-phenoxy-17,18,19,20-tetranol-LXA4 methyl ester, prepared by total synthesis as in ref. 7 by Prof. N. A. Petasis and colleagues, Dept. of Chemistry, Univ. of Southern California) (10 μg) in 10 μl of acetone was applied to the inner side of right ears. Acetone alone was applied to the left ear as a vehicle control. Five min later, LTB4 (5S, 12R-dihydroxy-6,8,10,14-eicosatetraenoic acid; 1 μg) in 10 μl acetone was applied to both ears. Ear skin punch biopsies were collected for leukocyte MPO activity (Takano, T., Clish, C. B., Gronert, K., Petasis, N. A. and Serhan C. N. 1997. Neutrophil-mediated changes in vascular permeability are inhibited by topical application of aspirin-triggered 15-epi-lipoxin A4 and novel lipoxin B4 stable analogues. J. Clin. Invest. 101: 819-826).

BLTR [2] = biological target: T1, BLTR (Homo sapiens, UniProt Q15722); experiment: Intracellular Ca2+ mobilization in HEK293 cells transfected with pGL-CD11b-hBLTR; type: cell-based; design: expressed in transfected cells; host or cells: HEK293 (transient transfection with pGL-CD11b-hBLTR, SuperFect); conditions: LTB4 100 nM; transiently transfected HEK293 cells
[3] = tested on: PMN infiltration into lungs; experiment: Hind limb ischemia-reperfusion induced second organ injury (lung PMN infiltration by MPO); type: in vivo, mouse; conditions: hBLTR transgenic mice
From the text: Hind limb ischemia-reperfusion induced second organ injury. Mice were anesthetized and ATL analog 15-epi-16-para-fluoro-phenoxy-LXA4 (15(R)-16-para-fluoro-phenoxy-17,18,19,20-tetranol-LXA4 methyl ester), prepared as in (Takano, T., Clish, C. B., Gronert, K., Petasis, N. A. and Serhan C. N. 1997. Neutrophil-mediated changes in vascular permeability are inhibited by topical application of aspirin-triggered 15-epi-lipoxin A4 and novel lipoxin B4 stable analogues. J. Clin. Invest. 101: 819-826) or vehicle was administered intravenously to the transgenic mice. Approximately five minutes later, a tourniquet was placed proximally around each hind limb and secured with a metal clamp (Goldman, G., Welboum, R., Klausner, J. M., Kobzik, L., Valeri, C. R. et al. 1992. Mast cells and leukotrienes mediate neutrophil sequestration and lung edema after remote ischemia in rodents. Surgery 112: 578-586). Vascular occlusion was verified by engorgement and discoloration of the feet. After 3 hours of ischemia, the tourniquets were removed and followed by 3 hours of reperfusion. […] The left lungs were harvested, homogenized in 1.5 ml of potassium phosphate buffer (pH 7.4) and then centrifuged at 14,000 rpm (5 min). […]

BLTR [4] = biological target: T1, BLTR; experiment: Displacement of specific [3H]-LTB4 binding in HEK293 cells stably transfected with BLTR; design: expressed in transfected cells
Procedure: (§1) Cloning and functional expression of hBLTR. Total RNA was isolated from retinoic acid differentiated HL-60 cells using TriZol reagent (GIBCO BRL, Grand Island, N.Y.) and reverse-transcribed for 30 min at 50° C. followed by 40 cycles of polymerase chain reactions (PCR) using Vent DNA polymerase (New England BioLabs, Beverly, Mass.) (98° C. for 1 min, 60° C. for 1 min and 72° C. for 2 min) with specific primers for hBLTR (BLTR-N: 5′[…]-3′ and BLTR-C: 5′[…]-3′) (Fiore, S., Romano, M., Reardon, E. M. and Serhan, C. N. 1993. Induction of functional lipoxin A4 receptors in HL-60 cells. Blood 81: 3395-3403). HBLTR cDNA was inserted into pGL vector (Promega) at HindII-PpuMI site downstream of CD11b promoter. HEK293 cells were transfected with this pGL-CD11b-hBLTR construct using SuperFect reagent (Qiagen, Chatsworth, Calif.). Ligand binding and intracellular Ca^2+ release were carried out as in refs. (Yokomizo, T., Izumi, T., Chang, K., Takuwa, Y. and Shimizu, T. 1997. A G-protein-coupled receptor for leukotriene B4 that mediates chemotaxis. Nature 387: 620-624) and (Ng, C. F., Sun, F. F., Taylor, B. M., Wolin, M. S. and Wong, P. Y. 1991. Functional properties of guinea pig eosinophil leukotriene B4receptors. J. Immunol. 147: 3096-3103), respectively. […]

[5] = tested on: HEK293 cells with BLTR and ALXR (stable transfectants); experiment: Cytosensor microphysiometry of extracellular acidification rate (EAR) in HEK293 cells with BLTR and ALXR; type: cell-based, human; conditions: LXA4 1 μM 20 min prior to LTB4 1 μM
Procedure: as §1

T1 sequence (Q15722 whole entry, the tested form may be a part): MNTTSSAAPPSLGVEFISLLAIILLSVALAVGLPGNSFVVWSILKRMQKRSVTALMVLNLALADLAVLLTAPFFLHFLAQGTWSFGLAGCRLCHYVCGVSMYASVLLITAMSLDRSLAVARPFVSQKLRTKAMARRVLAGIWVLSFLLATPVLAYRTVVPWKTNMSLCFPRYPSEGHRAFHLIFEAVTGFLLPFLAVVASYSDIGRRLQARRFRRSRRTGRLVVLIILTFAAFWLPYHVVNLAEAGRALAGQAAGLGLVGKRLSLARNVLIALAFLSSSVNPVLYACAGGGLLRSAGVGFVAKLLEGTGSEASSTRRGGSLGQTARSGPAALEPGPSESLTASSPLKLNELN

Question: Which “increase in PMN infiltration into skin compared to vehicle control” value ([1]; hBLTR transgenic mice, n=10) does the source give for CCCCCC=CC[C@@H](O)C=CC=CC=C[C@@H](O)CCCC(=O)O [LTB4, 5S, 12R-dihydroxy-6,8,10,14-eicosatetraenoic acid, reference compound] here?
Answer: 7.4±0.9 fold

Question: What about the “increase in PMN infiltration into skin compared to vehicle control” value ([1]; wt mice, n=7) of the same compound?
Answer: 3.2±0.5 fold

Question: What about the “mobilization of intracellular Ca2+” value (BLTR [2]) of the same compound?
Answer: intracellular Ca^2+ was mobilized

Question: How did the “PMN infiltration into lungs vs vehicle” value ([3]; 10 μg intravenous prior to ischemia-reperfusion, p=0.04, n=3) turn out when COC(=O)CCC[C@H](O)[C@H](O)C=CC=CC=CC=C[C@@H](O)COc1ccc(F)cc1 [ATL, 15(R)-16-para-fluoro-phenoxy-17,18,19,20-tetranol-LXA4 methyl ester] was run?
Answer: significantly diminished PMN infiltration into lungs

Question: What about the “inhibition of PMN infiltration (change)” value ([3]; intravenous prior to ischemia-reperfusion) of the same compound?
Answer: 40-60%

Question: Which results are given for CCCCC[C@H](O)/C=C/C=C\C=C\C=C\[C@@H](O)[C@@H](O)CCCC(=O)O (relative stereo) [LXA4, 5(S), 6(R), 15(S)-trihydroxy-7,9,13-trans-11-cis eicosatetraenoic acid]?
Answer: competition with [3H]-LTB4 binding (BLTR [4]): did not compete with [^3H]-LTB4 binding; effect on LTB4-evoked extracellular acidification rate [5]: nor did LXA4 or its analogs affect LTB4-evoked extracellular acidification rate

Question: Which “number of PMN whose infiltration was inhibited, hBLTR transgenic relative to wt mice” value ([1]; MPO activities converted to total number of PMN, 10 μg topical) does the source give for COC(=O)CCC[C@H](O)[C@H](O)C=CC=CC=CC=C[C@H](O)COc1ccccc1 [LXA4 stable analog, 15(S)-16-phenoxy-17,18,19,20-tetranol-LXA4 methyl ester] here?
Answer: 3 times

Question: And the “percent inhibition of LTB4-induced PMN infiltration” value ([1]; hBLTR transgenic mice)?
Answer: ~45%

Question: What about the “effect on PMN infiltration” value ([1]; hBLTR transgenic mice, 10 μg topical, representative data from n=3) of the same compound?
Answer: clearly able to block PMN infiltration

Question: And the “percent inhibition of LTB4-induced PMN infiltration” value ([1]; wt mice)?
Answer: ~37%
